Assay results taken from ChEMBL document CHEMBL4385632, “Synthesis of novel benzothiazole amides: Evaluation of PPAR activity and anti-proliferative effects in paraganglioma, pancreatic and colorectal cancer cell lines” (2019).
The source made the active and inactive calls. The calls are words filed in the database; no cut-off is given here.

Key:
[1] = (§1) Cytotoxicity against human PTJ86i cells assessed as reduction in cell viability at 75 uM incubated for 72 hrs by MTT assay; assay type: functional
Capan-2 = experiment: Cytotoxicity against human Capan2 cells assessed as reduction in cell viability at 75 uM incubated for 72 hrs by MTT assay; assay type: functional; conditions: for inhibition at 75 µM: Capan-2, 72 h
[2] = target: T1, Peroxisome proliferator-activated receptor gamma (Homo sapiens) (UniProt P37231); experiment: Antagonist activity at GAL4-tagged human PPARgamma LBD expressed in human HepG2 cells assessed as inhibition of rosiglitazone-induced receptor transactivation at 25 uM incubated for 20 hrs by luciferase reporter gene assay relative to control; assay type: cell-based
T1 sequence (whole entry): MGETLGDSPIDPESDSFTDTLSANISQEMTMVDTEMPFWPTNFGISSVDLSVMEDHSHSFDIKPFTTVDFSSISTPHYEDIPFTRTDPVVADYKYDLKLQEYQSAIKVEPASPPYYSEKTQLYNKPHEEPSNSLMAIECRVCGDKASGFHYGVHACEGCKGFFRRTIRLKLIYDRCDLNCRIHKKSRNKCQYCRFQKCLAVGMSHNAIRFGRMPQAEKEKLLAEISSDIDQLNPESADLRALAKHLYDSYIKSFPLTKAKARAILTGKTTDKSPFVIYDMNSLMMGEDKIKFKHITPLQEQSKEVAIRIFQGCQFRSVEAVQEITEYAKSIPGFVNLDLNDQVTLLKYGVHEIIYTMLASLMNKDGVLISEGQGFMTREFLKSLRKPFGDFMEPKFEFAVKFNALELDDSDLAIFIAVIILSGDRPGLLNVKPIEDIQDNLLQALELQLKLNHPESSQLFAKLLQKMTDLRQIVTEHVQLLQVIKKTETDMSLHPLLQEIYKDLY

[3] = (§2) Cytotoxicity against human PTJ64i cells assessed as reduction in cell viability at 75 uM incubated for 72 hrs by MTT assay; assay type: functional
ASPC1 = experiment: Cytotoxicity against human AsPC1 cells assessed as reduction in cell viability at 75 uM incubated for 72 hrs by MTT assay; assay type: functional; conditions: for inhibition at 75 µM: ASPC1, 72 h
SW480 = experiment: Cytotoxicity against human SW480 cells assessed as reduction in cell viability at 75 uM incubated for 72 hrs by MTT assay; assay type: functional; conditions: for inhibition at 75 µM: SW480, 72 h
[4] = target: T2, Peroxisome proliferator-activated receptor alpha (Homo sapiens) (UniProt Q07869); experiment: Antagonist activity at GAL4-tagged human PPARalpha LBD expressed in human HepG2 cells assessed as inhibition of Wy14,643-induced receptor transactivation at 25 uM incubated for 20 hrs by luciferase reporter gene assay relative to control; assay type: cell-based
T2 sequence (whole entry): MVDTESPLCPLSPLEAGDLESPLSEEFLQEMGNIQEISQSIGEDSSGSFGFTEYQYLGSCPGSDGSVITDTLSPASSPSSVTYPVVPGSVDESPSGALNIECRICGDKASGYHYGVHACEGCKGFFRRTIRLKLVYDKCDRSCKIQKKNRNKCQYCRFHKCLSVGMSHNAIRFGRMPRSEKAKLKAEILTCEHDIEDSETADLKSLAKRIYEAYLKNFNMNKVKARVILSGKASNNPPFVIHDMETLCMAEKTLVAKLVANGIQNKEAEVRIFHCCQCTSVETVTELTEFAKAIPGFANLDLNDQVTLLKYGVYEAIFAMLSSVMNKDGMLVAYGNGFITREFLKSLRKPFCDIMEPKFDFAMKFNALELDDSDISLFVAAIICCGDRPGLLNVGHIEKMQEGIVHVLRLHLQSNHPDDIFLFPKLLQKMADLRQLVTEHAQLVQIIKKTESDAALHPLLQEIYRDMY

[5] = target: T3, Peroxisome proliferator-activated receptor delta (Homo sapiens) (UniProt Q03181); experiment: Antagonist activity at GAL4-tagged human PPARdelta LBD expressed in human HepG2 cells assessed as inhibition of L-165,041-induced receptor transactivation at 25 uM incubated for 20 hrs by luciferase reporter gene assay relative to control; assay type: cell-based
T3 sequence (whole entry): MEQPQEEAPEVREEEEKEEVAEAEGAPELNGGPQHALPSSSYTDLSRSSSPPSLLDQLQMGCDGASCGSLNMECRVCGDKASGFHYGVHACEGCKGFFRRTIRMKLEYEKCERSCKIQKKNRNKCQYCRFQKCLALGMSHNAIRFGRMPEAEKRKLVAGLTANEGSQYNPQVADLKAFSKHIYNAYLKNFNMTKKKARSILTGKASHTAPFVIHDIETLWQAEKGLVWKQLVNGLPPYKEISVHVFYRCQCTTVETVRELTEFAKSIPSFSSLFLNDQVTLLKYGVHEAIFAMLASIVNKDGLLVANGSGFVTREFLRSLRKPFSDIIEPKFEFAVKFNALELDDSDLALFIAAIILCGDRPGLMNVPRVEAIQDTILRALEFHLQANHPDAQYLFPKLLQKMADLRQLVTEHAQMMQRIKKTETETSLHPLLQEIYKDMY

HT-29 = experiment: Cytotoxicity against human HT-29 cells assessed as reduction in cell viability at 75 uM incubated for 72 hrs by MTT assay; assay type: functional; conditions: for inhibition at 75 µM: HT-29, 72 h
Homo sapiens [6] = organism: Homo sapiens; experiment: as §1; assay type: functional
Homo sapiens [7] = organism: Homo sapiens; experiment: as §2; assay type: functional
[8] = Inhibition of colony formation in human PTJ64i cells assessed as plating efficiency at 24 uM incubated for 13 days by crystal violet staining based assay (Rvb=10.75%); assay type: functional; set-up: scale not given: the % may be the effect or the level left
[9] = Inhibition of colony formation in human PTJ86i cells assessed as plating efficiency at 24 uM incubated for 13 days by crystal violet staining based assay (Rvb=30.25%); assay type: functional; set-up: scale not given: the % may be the effect or the level left
[10] = Inhibition of colony formation in human PTJ64i cells assessed as surviving fraction at 24 uM incubated for 13 days by crystal violet staining based assay (Rvb=100%); assay type: functional; conditions: 312 h, read-out: Survival
[11] = Inhibition of colony formation in human PTJ86i cells assessed as surviving fraction at 24 uM incubated for 13 days by crystal violet staining based assay (Rvb=100%); assay type: functional; conditions: 312 h, read-out: Survival
Homo sapiens [12] = organism: Homo sapiens; experiment: Cytotoxicity against human PTJ86i cells assessed as reduction in cell viability incubated for 72 hrs by MTT assay; assay type: functional, cell-based
Homo sapiens [13] = organism: Homo sapiens; experiment: Cytotoxicity against human PTJ64i cells assessed as reduction in cell viability incubated for 72 hrs by MTT assay; assay type: functional, cell-based

Row | SMILES | %max [2] | %max [4] | %max [5] | inhibition at 75 µM [1] | inhibition at 75 µM (Capan-2) | inhibition at 75 µM [3] | inhibition at 75 µM (ASPC1) | inhibition at 75 µM (SW480) | inhibition at 75 µM (HT-29) | other results
1 | CC(NC(=O)C(Sc1nc2cc(Cl)ccc2s1)c1ccccc1)c1ccccc1 (stereo not given) | < 2% | 45% | < 2% | ≥ 50% | ≤ 50% | ≥ 50% | ≤ 50% | 60% | ≤ 50% | 
2 | CC(=O)Nc1ccc(NC(=O)C(Sc2nc3cc(Cl)ccc3s2)c2ccccc2)cc1 (stereo not given) | < 2% | 22% | < 2% | ≥ 50% | ≤ 50% | ≥ 50% | ≤ 50% | ≤ 50% | ≤ 50% | 
3 | CCC(=O)NC[C@H](Cc1ccc(OCCc2nc(-c3ccccc3)oc2C)cc1)N/C(C)=C\C(=O)c1ccc(C(F)(F)F)cc1 |  |  |  |  |  |  |  |  |  | inhibition (Homo sapiens [6]): Active; inhibition (Capan-2): Active; inhibition (Homo sapiens [7]): Active; inhibition (ASPC1): Active; inhibition (SW480): Active; inhibition (HT-29): Active
4 | O=C(NCc1ccccc1)C(Sc1nc2cc(Cl)ccc2s1)c1ccccc1 (stereo not given) | < 2% | 35% | < 2% | ≥ 50% | ≤ 50% | ≥ 50% | ≤ 50% | ≤ 50% | ≤ 50% | 
5 | O=C(Nc1ccccc1)C(Sc1nc2cc(Cl)ccc2s1)c1ccccc1 (stereo not given) | < 2% | 22% | < 2% | > 90% | ≤ 75% | > 90% | ≤ 75% | ≤ 68% | ≤ 68% | Activity [8]: 2.5%; Activity [9]: 5.5%; viability at 24 µM [10]: 23.3%; viability at 24 µM [11]: 18.2%; inhibition (Homo sapiens [12]): Dose-dependent effect; inhibition (Homo sapiens [13]): Dose-dependent effect

Now from value to molecule, other results behind:

Row | %max [2] | %max [4] | %max [5] | SMILES | inhibition at 75 µM [1] | inhibition at 75 µM (Capan-2) | inhibition at 75 µM [3] | inhibition at 75 µM (ASPC1) | inhibition at 75 µM (SW480) | inhibition at 75 µM (HT-29) | other results
6 | < 2% | 57% | < 2% | O=C(NCCc1ccccc1)C(Sc1nc2cc(Cl)ccc2s1)c1ccccc1 (stereo not given) | ≥ 50% | ≤ 74% | ≥ 50% | ≤ 74% | ≤ 50% | ≤ 50% | 
7 | < 2% | 31% | < 2% | CCCCNC(=O)C(Sc1nc2cc(Cl)ccc2s1)c1ccccc1 (stereo not given) | ≥ 50% | ≤ 50% | ≥ 50% | ≤ 50% | ≤ 50% | ≤ 50% | 
8 | < 2% | 46% | < 2% | O=C(NCCCc1ccccc1)C(Sc1nc2cc(Cl)ccc2s1)c1ccccc1 (stereo not given) | ≥ 50% | ≤ 50% | ≥ 50% | ≤ 50% | ≤ 63% | ≤ 63% | 
